Converted amounts (≈) assume the structure as drawn.
How the values were obtained:
Type in all cases: cell-based
[1] = tested on: Serratia marc. ATCC 13880; test: MIC by standard agar inclusion method (Serratia marc. ATCC 13880); settings: ATCC13880
Kleb. pneumo. SK 1200 = test: MIC by standard agar inclusion method (Kleb. pneumo. SK 1200)
Strep. faecalis HH 34358 = test: MIC by standard agar inclusion method (Strep. faecalis HH 34358); settings: Enterococcus faecalis, HH34358
S. aureus HH 127 = test: MIC by standard agar inclusion method (S. aureus HH 127); settings: Staphylococcus aureus, HH127
Kleb. pneumo. SK 4200 = test: MIC by standard agar inclusion method (Kleb. pneumo. SK 4200)
E. coli SK 12140 = test: MIC by standard agar inclusion method (E. coli SK 12140); settings: Escherichia coli, SK12140
S. aureus SK 23390 = test: MIC by standard agar inclusion method (S. aureus SK 23390); settings: Staphylococcus aureus, SK23390
Pseudo. aeruginosa HH63 = test: MIC by standard agar inclusion method (Pseudo. aeruginosa HH63); settings: Pseudomonas aeruginosa
E. coli HH 33779 = test: MIC by standard agar inclusion method (E. coli HH 33779); settings: Escherichia coli, HH33779
Salmonella ATCC 12176 = test: MIC by standard agar inclusion method (Salmonella ATCC 12176); settings: ATCC12176
[2] = tested on: Entero. aerogenes ATCC 13048; test: MIC by standard agar inclusion method (Entero. aerogenes ATCC 13048); settings: Klebsiella aerogenes, ATCC13048
S. aureus Villaluz = test: MIC by standard agar inclusion method (S. aureus Villaluz); settings: Staphylococcus aureus
Shigella paradysentiae = test: MIC by standard agar inclusion method (Shigella paradysentiae)

SMILES | MIC [1] [µg/mL] | MIC (Kleb. pneumo. SK 1200) [µg/mL] | MIC (Strep. faecalis HH 34358) [µg/mL] | MIC (S. aureus HH 127) [µg/mL] | MIC (Kleb. pneumo. SK 4200) [µg/mL] | MIC (E. coli SK 12140) [µg/mL] | MIC (S. aureus SK 23390) [µg/mL] | MIC (Pseudo. aeruginosa HH63) [µg/mL] | MIC (E. coli HH 33779) [µg/mL] | MIC (Salmonella ATCC 12176) [µg/mL] | MIC [2] [µg/mL] | MIC (S. aureus Villaluz) [µg/mL] | MIC (Shigella paradysentiae) [µg/mL]
CC(=O)OCC1=C(C(=O)O)N2C(=O)C(NC(=O)CSCC(F)(F)F)C2SC1 (centres unmarked) [Compound 1, 7-Trifluoroethylmercaptoacetamidocephalosporanic acid] | > 200 | 3.1 (≈ 7.24 µM) | 25 (≈ 58.4 µM) | 0.4 (≈ 0.934 µM) | 6.3 (≈ 14.7 µM) | 6.3 (≈ 14.7 µM) | 0.4 (≈ 0.934 µM) | > 200 | 50 (≈ 117 µM) | 6.3 (≈ 14.7 µM) | 50 (≈ 117 µM) | 25 (≈ 58.4 µM) | 6.3 (≈ 14.7 µM)
Cc1nnc(SCC2=C(C(=O)O)N3C(=O)C(NC(=O)CSCC(F)(F)F)[C@H]3SC2)s1 (some centres unmarked) [Compound 2, 7-Trifluoroethylmercaptoacetamido-3-(5-methyl-1,3,4-thiadiazol-2-ylthiomethyl)-3-cephem-4-carboxylic acid] | > 200 | 3.1 (≈ 6.19 µM) | 6.3 (≈ 12.6 µM) | 0.2 (≈ 0.4 µM) | 6.3 (≈ 12.6 µM) | 6.3 (≈ 12.6 µM) | 0.1 (≈ 0.2 µM) | > 200 | 12.5 (≈ 25 µM) | 6.3 (≈ 12.6 µM) | 25 (≈ 49.9 µM) | 25 (≈ 49.9 µM) | 1.6 (≈ 3.2 µM)
Cn1nnnc1SCC1=C(C(=O)O)N2C(=O)C(NC(=O)CSCC(F)(F)F)[C@H]2SC1 (some centres unmarked) [Compound 3, 7-Trifluoroethylmercaptoacetamido-3-(1-methyltetrazol-5-ylthiomethyl)-3-cephem-4-carboxylic acid] | > 200 | 1.6 (≈ 3.3 µM) | 12.5 (≈ 25.8 µM) | 0.2 (≈ 0.413 µM) | 3.1 (≈ 6.4 µM) | 1.6 (≈ 3.3 µM) | 0.1 (≈ 0.206 µM) | > 200 | 6.3 (≈ 13 µM) | 0.8 (≈ 1.65 µM) | 6.3 (≈ 13 µM) | 12.5 (≈ 25.8 µM) | 0.4 (≈ 0.826 µM)
Cn1nnnc1SCC1=C(C(=O)O)N2C(=O)C(NC(=O)C[S+]([O-])CC(F)(F)F)[C@H]2SC1 (some centres unmarked) [Compound 4, 7-Trifluoroethylsulfinylacetamido-3-(1-methyltetrazol-5-ylthiomethyl)-3-cephem-4-carboxylic acid] | > 200 | 0.4 (≈ 0.799 µM) | 100 (≈ 200 µM) | 1.6 (≈ 3.2 µM) | 0.8 (≈ 1.6 µM) | 0.8 (≈ 1.6 µM) | 0.8 (≈ 1.6 µM) | > 200 | 3.1 (≈ 6.19 µM) | 1.6 (≈ 3.2 µM) | 6.3 (≈ 12.6 µM) | 100 (≈ 200 µM) | 0.4 (≈ 0.799 µM)
Cn1nnnc1SCC1=C(C(=O)O)N2C(=O)C(NC(=O)CS(=O)(=O)CC(F)(F)F)[C@H]2SC1 (some centres unmarked) [Compound 5, 7-Trifluoroethylsulfonylacetamido-3-(1-methyltetrazol-5-ylthiomethyl)-3-cephem-4-carboxylic acid] | > 200 | 3.1 (≈ 6 µM) | > 200 | 3.1 (≈ 6 µM) | 3.1 (≈ 6 µM) | 6.3 (≈ 12.2 µM) | 3.1 (≈ 6 µM) | > 200 | 12.5 (≈ 24.2 µM) | 6.3 (≈ 12.2 µM) | 50 (≈ 96.8 µM) | 200 (≈ 387 µM) | 6.3 (≈ 12.2 µM)

— patent US3998818A, “Trifluoroethylmercapto, -sulfinyl or -sulfonyl acetamidocephalosporins” (SmithKline Corporation, priority 1975, dated 1976)
